These are literature values, as cited in patent US7678808B2, “5 HT receptor mediated neurogenesis” (BrainCells, Inc., priority 2006, dated 2010).

SMILES strings stand for the structures.

What is called IC50 is the concentration that inhibits the measured activity by half.

For one series, the target named is mGluR2 (Homo sapiens, UniProt Q14416). To be noted: read-out: IC50 against mGluR2; cited from earlier work.
Another series concerns the target mGluR3 (Homo sapiens, UniProt Q14832). To be noted: read-out: IC50 against mGluR3; cited from earlier work.
Series [1] relates to Group I or Group III receptors. To be noted: sub-mM concentrations; cited from earlier work.

mGluR2, sequence (Q14416 19-872): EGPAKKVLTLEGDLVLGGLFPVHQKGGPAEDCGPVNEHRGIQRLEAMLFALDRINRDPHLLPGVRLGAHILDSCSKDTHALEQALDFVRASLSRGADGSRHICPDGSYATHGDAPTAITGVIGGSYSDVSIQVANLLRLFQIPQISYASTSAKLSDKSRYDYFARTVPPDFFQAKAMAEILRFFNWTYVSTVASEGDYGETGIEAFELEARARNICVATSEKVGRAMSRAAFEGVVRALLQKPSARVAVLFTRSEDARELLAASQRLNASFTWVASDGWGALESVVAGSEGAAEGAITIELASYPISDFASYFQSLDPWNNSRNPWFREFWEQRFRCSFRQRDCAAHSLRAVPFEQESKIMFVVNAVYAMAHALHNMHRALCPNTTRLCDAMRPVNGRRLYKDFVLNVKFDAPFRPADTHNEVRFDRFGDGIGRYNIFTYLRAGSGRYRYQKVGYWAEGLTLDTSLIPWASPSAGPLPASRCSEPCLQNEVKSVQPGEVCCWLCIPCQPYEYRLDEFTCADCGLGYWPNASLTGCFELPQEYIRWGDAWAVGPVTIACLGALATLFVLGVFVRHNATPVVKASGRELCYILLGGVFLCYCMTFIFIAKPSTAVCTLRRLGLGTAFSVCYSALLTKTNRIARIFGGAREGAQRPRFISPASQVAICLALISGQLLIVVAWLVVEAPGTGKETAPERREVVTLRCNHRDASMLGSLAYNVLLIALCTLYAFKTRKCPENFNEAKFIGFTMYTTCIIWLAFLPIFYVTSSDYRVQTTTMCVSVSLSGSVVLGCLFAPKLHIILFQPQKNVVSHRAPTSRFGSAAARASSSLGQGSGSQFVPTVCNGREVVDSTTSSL
mGluR3, sequence (Q14832 23-879): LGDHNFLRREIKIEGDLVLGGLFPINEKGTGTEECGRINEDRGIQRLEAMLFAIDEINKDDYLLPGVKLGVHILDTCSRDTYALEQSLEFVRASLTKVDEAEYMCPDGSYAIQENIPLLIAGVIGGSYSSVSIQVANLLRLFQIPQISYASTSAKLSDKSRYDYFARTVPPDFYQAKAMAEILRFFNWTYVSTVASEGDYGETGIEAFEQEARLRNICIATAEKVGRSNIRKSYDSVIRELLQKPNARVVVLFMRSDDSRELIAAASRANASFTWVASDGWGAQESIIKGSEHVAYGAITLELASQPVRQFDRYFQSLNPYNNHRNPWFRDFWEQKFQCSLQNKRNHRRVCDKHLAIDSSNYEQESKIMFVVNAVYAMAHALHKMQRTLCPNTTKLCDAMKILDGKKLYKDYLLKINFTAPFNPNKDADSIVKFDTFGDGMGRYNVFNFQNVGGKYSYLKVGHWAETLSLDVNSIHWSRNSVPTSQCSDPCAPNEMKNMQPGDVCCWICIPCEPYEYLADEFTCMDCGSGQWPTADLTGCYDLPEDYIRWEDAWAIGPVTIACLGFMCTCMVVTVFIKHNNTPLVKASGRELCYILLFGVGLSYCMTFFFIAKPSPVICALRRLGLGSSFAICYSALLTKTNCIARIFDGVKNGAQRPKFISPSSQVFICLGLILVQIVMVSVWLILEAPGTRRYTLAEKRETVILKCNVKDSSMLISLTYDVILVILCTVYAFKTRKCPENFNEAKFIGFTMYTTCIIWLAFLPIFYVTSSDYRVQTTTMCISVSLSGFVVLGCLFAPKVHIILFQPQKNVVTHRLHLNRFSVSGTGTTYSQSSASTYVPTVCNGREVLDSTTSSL

With `NC1(C(=O)O)CCc2cc(P(=O)(O)O)ccc21` (racemic) [APICA, (RS)-1-amino-5-phosphonoindan-1-carboxylic acid], the IC50 at mGluR2 and on mGluR3 was about 30 µM each time. Further, the “activity against Group I or Group III receptors” value in series [1] is listed as “no appreciable activity”.
